Results: PubChem BioAssay (NCI)
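All cell lines were grown in 96-well plates and treated with compound for 48 hours. Here, GI50 denotes the concentration required for 50% inhibition of growth. The concentration for full growth arrest is given as TGI.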

Tests used:
Test in all cases: inhibition of tumour cell growth, NCI panel, 48 h
786-0 renal = test system: 786-0 renal
A498 renal = test system: A498 renal
A549 NSCLC = test system: A549 NSCLC
ACHN renal = test system: ACHN renal
BT-549 breast = test system: BT-549 breast
CAKI-1 renal = test system: CAKI-1 renal
CCRF-CEM leukemia = test system: CCRF-CEM leukemia
COLO 205 colon = test system: COLO 205 colon
DU-145 prostate = test system: DU-145 prostate
EKVX NSCLC = test system: EKVX NSCLC
HCC-2998 colon = test system: HCC-2998 colon
HCT-116 colon = test system: HCT-116 colon
HCT-15 colon = test system: HCT-15 colon
HL-60(TB) leukemia = test system: HL-60(TB) leukemia
HOP-62 NSCLC = test system: HOP-62 NSCLC
HOP-92 NSCLC = test system: HOP-92 NSCLC
HS 578T breast = test system: HS 578T breast
HT29 colon = test system: HT29 colon
IGROV1 ovarian = test system: IGROV1 ovarian
K-562 leukemia = test system: K-562 leukemia
KM12 colon = test system: KM12 colon
LOX IMVI melanoma = test system: LOX IMVI melanoma
M14 melanoma = test system: M14 melanoma
MALME-3M melanoma = test system: MALME-3M melanoma
MCF7 breast = test system: MCF7 breast
MDA-MB-231 breast = test system: MDA-MB-231 breast
MDA-MB-435 = test system: MDA-MB-435
MOLT-4 leukemia = test system: MOLT-4 leukemia
NCI-H226 lung = test system: NCI-H226 lung
NCI-H23 lung = test system: NCI-H23 lung
NCI-H460 lung = test system: NCI-H460 lung
NCI-H522 lung = test system: NCI-H522 lung
NCI/ADR-RES ovarian = test system: NCI/ADR-RES ovarian
OVCAR-3 ovarian = test system: OVCAR-3 ovarian
OVCAR-4 ovarian = test system: OVCAR-4 ovarian
OVCAR-5 ovarian = test system: OVCAR-5 ovarian
OVCAR-8 ovarian = test system: OVCAR-8 ovarian
PC-3 prostate = test system: PC-3 prostate
RPMI-8226 leukemia = test system: RPMI-8226 leukemia
RXF 393 renal = test system: RXF 393 renal
SF-268 CNS = test system: SF-268 CNS
SF-295 CNS = test system: SF-295 CNS
SF-539 CNS = test system: SF-539 CNS
SK-MEL-2 melanoma = test system: SK-MEL-2 melanoma
SK-MEL-28 melanoma = test system: SK-MEL-28 melanoma
SK-MEL-5 melanoma = test system: SK-MEL-5 melanoma
SK-OV-3 ovarian = test system: SK-OV-3 ovarian
SN12C renal = test system: SN12C renal
SNB-19 CNS = test system: SNB-19 CNS
SNB-75 CNS = test system: SNB-75 CNS
SR leukemia = test system: SR leukemia
SW-620 colon = test system: SW-620 colon
T-47D breast = test system: T-47D breast
TK-10 renal = test system: TK-10 renal
U251 CNS = test system: U251 CNS
UACC-257 melanoma = test system: UACC-257 melanoma
UACC-62 melanoma = test system: UACC-62 melanoma
UO-31 renal = test system: UO-31 renal

O/N=C1\CCc2cc(-c3nc(C4CCNCC4)[nH]c3-c3ccncc3)ccc21
GI50 (786-0 renal): > 25 µM
TGI (786-0 renal): > 25 µM
GI50 (A498 renal): > 25 µM
TGI (A498 renal): > 25 µM
GI50 (A549 NSCLC): > 25 µM
TGI (A549 NSCLC): > 25 µM
GI50 (ACHN renal): > 25 µM
TGI (ACHN renal): > 25 µM
GI50 (BT-549 breast): > 25 µM
TGI (BT-549 breast): > 25 µM
GI50 (CAKI-1 renal): > 25 µM
TGI (CAKI-1 renal): > 25 µM
GI50 (CCRF-CEM leukemia): > 25 µM
TGI (CCRF-CEM leukemia): > 25 µM
GI50 (COLO 205 colon): 2.78 µM
TGI (COLO 205 colon): > 25 µM
GI50 (DU-145 prostate): > 25 µM
TGI (DU-145 prostate): > 25 µM
GI50 (EKVX NSCLC): > 25 µM
TGI (EKVX NSCLC): > 25 µM
GI50 (HCC-2998 colon): > 25 µM
TGI (HCC-2998 colon): > 25 µM
GI50 (HCT-116 colon): > 25 µM
TGI (HCT-116 colon): > 25 µM
GI50 (HCT-15 colon): > 25 µM
TGI (HCT-15 colon): > 25 µM
GI50 (HL-60(TB) leukemia): > 25 µM
TGI (HL-60(TB) leukemia): > 25 µM
GI50 (HOP-62 NSCLC): > 25 µM
TGI (HOP-62 NSCLC): > 25 µM
GI50 (HOP-92 NSCLC): > 25 µM
TGI (HOP-92 NSCLC): > 25 µM
GI50 (HS 578T breast): > 25 µM
TGI (HS 578T breast): > 25 µM
GI50 (HT29 colon): > 16.4 µM
TGI (HT29 colon): > 25 µM
GI50 (IGROV1 ovarian): > 25 µM
TGI (IGROV1 ovarian): > 25 µM
GI50 (K-562 leukemia): > 25 µM
TGI (K-562 leukemia): > 25 µM
GI50 (KM12 colon): > 25 µM
TGI (KM12 colon): > 25 µM
GI50 (LOX IMVI melanoma): > 25 µM
TGI (LOX IMVI melanoma): > 25 µM
GI50 (M14 melanoma): 7.57 µM
TGI (M14 melanoma): > 25 µM
GI50 (MALME-3M melanoma): 3.02 µM
TGI (MALME-3M melanoma): 12.3 µM
GI50 (MCF7 breast): > 25 µM
TGI (MCF7 breast): > 25 µM
GI50 (MDA-MB-231 breast): > 25 µM
TGI (MDA-MB-231 breast): > 25 µM
GI50 (MDA-MB-435): 12.1 µM
TGI (MDA-MB-435): > 25 µM
GI50 (MOLT-4 leukemia): > 25 µM
TGI (MOLT-4 leukemia): > 25 µM
GI50 (NCI-H226 lung): > 25 µM
TGI (NCI-H226 lung): > 25 µM
GI50 (NCI-H23 lung): > 25 µM
TGI (NCI-H23 lung): > 25 µM
GI50 (NCI-H460 lung): > 25 µM
TGI (NCI-H460 lung): > 25 µM
GI50 (NCI-H522 lung): > 25 µM
TGI (NCI-H522 lung): > 25 µM
GI50 (NCI/ADR-RES ovarian): > 25 µM
TGI (NCI/ADR-RES ovarian): > 25 µM
GI50 (OVCAR-3 ovarian): > 25 µM
TGI (OVCAR-3 ovarian): > 25 µM
GI50 (OVCAR-4 ovarian): > 25 µM
TGI (OVCAR-4 ovarian): > 25 µM
GI50 (OVCAR-5 ovarian): > 25 µM
TGI (OVCAR-5 ovarian): > 25 µM
GI50 (OVCAR-8 ovarian): > 25 µM
TGI (OVCAR-8 ovarian): > 25 µM
GI50 (PC-3 prostate): > 25 µM
TGI (PC-3 prostate): > 25 µM
GI50 (RPMI-8226 leukemia): > 25 µM
TGI (RPMI-8226 leukemia): > 25 µM
GI50 (RXF 393 renal): > 25 µM
TGI (RXF 393 renal): > 25 µM
GI50 (SF-268 CNS): > 25 µM
TGI (SF-268 CNS): > 25 µM
GI50 (SF-295 CNS): > 25 µM
TGI (SF-295 CNS): > 25 µM
GI50 (SF-539 CNS): > 25 µM
TGI (SF-539 CNS): > 25 µM
GI50 (SK-MEL-2 melanoma): 16 µM
TGI (SK-MEL-2 melanoma): > 25 µM
GI50 (SK-MEL-28 melanoma): 1.5 µM
TGI (SK-MEL-28 melanoma): > 21.3 µM
GI50 (SK-MEL-5 melanoma): > 25 µM
TGI (SK-MEL-5 melanoma): > 25 µM
GI50 (SK-OV-3 ovarian): > 25 µM
TGI (SK-OV-3 ovarian): > 25 µM
GI50 (SN12C renal): > 25 µM
TGI (SN12C renal): > 25 µM
GI50 (SNB-19 CNS): > 25 µM
TGI (SNB-19 CNS): > 25 µM
GI50 (SNB-75 CNS): > 15.8 µM
TGI (SNB-75 CNS): > 25 µM
GI50 (SR leukemia): > 25 µM
TGI (SR leukemia): > 25 µM
GI50 (SW-620 colon): > 25 µM
TGI (SW-620 colon): > 25 µM
GI50 (T-47D breast): > 25 µM
TGI (T-47D breast): > 25 µM
GI50 (TK-10 renal): > 25 µM
TGI (TK-10 renal): > 25 µM
GI50 (U251 CNS): > 25 µM
TGI (U251 CNS): > 25 µM
GI50 (UACC-257 melanoma): 5.17 µM
TGI (UACC-257 melanoma): > 25 µM
GI50 (UACC-62 melanoma): 0.24 µM
TGI (UACC-62 melanoma): > 25 µM
GI50 (UO-31 renal): > 25 µM
TGI (UO-31 renal): > 25 µM
